In patent US12123059B2, “Predicting cardiotoxicity risk in cancer patients receiving anthracyclines chemotherapy” (Fundación Para La Investigación Del Hospital Universitario …, priority 2018, dated 2024):

System: human cardiomyocytes
Test: Modulation of miRNA copy number by Doxorubicin in human cardiomyocytes in culture
Assay type: cell-based
Conditions: Doxorubicin 1 μM for 24 h, FIG. 4
Protocol: FIG. 4. (A, B) Graphics showing modulation of miRNAs by Doxorubicin in human cardiomyocytes and patients' serum. Left panels show copy number of indicated miRNAs in cardiomyocytes in culture before or after the addition of Doxorubicin (1 μM) for 24 h. Right panels show copy numbers of indicated miRNAs as detected by RNAseq in serum from control patients and cases and expressed as mean±SEM (N=10 in each case) before or after completion of anthracycline chemotherapy. Only miRNAs showing a similar tendency in cells and patients' serum are illustrated. *P<0.05.
The specific signature of miRNAs has been detected in serum. Since the pathways related to miRNAs are linked to cardiomyocytes, the copy number of the miRNAs of interest in human cardiomyocytes was also measured. As observed in FIG. 4, the miRNAs previously detected in serum were also present in human cardiomyocytes (left panels) and their expression level is altered when cells are damaged by Doxorubicin. […] As shown in the right panel of FIG. 4, the copy number of miRNA-22-3p increases both in cells and serum of patients after anthracycline treatment whereas miRNA-30b, miRNA-148a, miRNA-150-5p, and miRNA-4732-3p decrease their expression levels. […] Indeed, this set of miRNAs regulates genes involved in the aforementioned biological pathways (FIG. 5)

Structure (SMILES): COc1cccc2c1C(=O)c1c(O)c3c(c(O)c1C2=O)C[C@@](O)(C(=O)CO)C[C@@H]3O[C@H]1C[C@H](N)[C@H](O)[C@H](C)O1 [Doxorubicin]
- copy number of miRNA-22-3p: increases
- expression level of miRNA-30b: decrease
- expression level of miRNA-148a: decrease
- expression level of miRNA-150-5p: decrease
- expression level of miRNA-4732-3p: decrease
